Results on eleven compounds are retold here after ChEMBL document CHEMBL1201862, “PubChem BioAssay data set” (2004).

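Five compound concentrations were applied to cells in 96-well plates for 48 hours; endpoints were derived by simple linear interpolation of the resulting dose-response curve. GI50: concentration for 50% inhibition of growth.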 Calls of active or inactive are those of the source. No stated cut-off is given here; in the data, active = GI50 up to about 1.1 µM and inactive = higher. Some results are limits rather than exact numbers.

Among the test systems are CCRF-CEM; UO-31; NCI-H226; UACC-62; SN12C; OVCAR-8; K562; HCT-116; A549; HCT-15; MOLT-4; CAKI-1; SF-268; U-251; HT-29; HCC 2998; SW-620; NCI-H522; OVCAR-5.
Experiment in all cases: growth of human tumour cells (NCI), 48 h

Consider `O=C1C=C(O)c2nc(O)ccc2C1=O`, for which the GI50 with CCRF-CEM, in the test on UO-31, in the test with NCI-H226, in the test with UACC-62, with SN12C and with OVCAR-8 was > 100 µM (inactive) each time. Also, the GI50 is > 100 µM (inactive) in the test on K562; > 100 µM (inactive) in the test with HCT-116; > 100 µM (inactive) in the test with A549; more than 100 µM with HCT-15; > 100 µM (inactive) in the test on MOLT-4; > 100 µM (inactive) in the test with CAKI-1. Moreover, the GI50 in the test with SF-268, in the test with U-251, in the test on HT-29, in the test on HCC 2998, with SW-620 and in the test on NCI-H522 was > 100 µM (inactive) each time.
In the case of `O=C(OCc1nc2ccc(Br)cc2c(=O)n1-c1ccccc1)c1ccccc1O`, the GI50 with CCRF-CEM was 48.3 µM (inactive); in the test with UO-31, 29.8 µM (inactive); with NCI-H226, 57.5 µM (inactive); in the test on UACC-62, > 100 µM (inactive); in the test with SN12C, > 100 µM (inactive); in the test with OVCAR-8, > 100 µM (inactive). In addition, the GI50 in the test on K562 is 54.7 µM (inactive); in the test with HCT-116, > 100 µM (inactive); in the test on A549, 86.5 µM (inactive); in the test with MOLT-4, 37.9 µM (inactive); in the test on CAKI-1 it was 39.8 µM (inactive); with SF-268 it was 78.9 µM (inactive). Besides, the GI50 with U-251 was > 100 µM (inactive); in the test on HT-29, 84.9 µM (inactive); in the test with HCC 2998, > 100 µM (inactive); with SW-620, > 100 µM (inactive); with NCI-H522, 38.1 µM (inactive); with OVCAR-5, > 100 µM (inactive).
Turning to `CC(=O)OC1COC(N2C(=O)C(=O)c3ccccc32)C(OC(C)=O)C1OC(C)=O` (stereo not drawn), the GI50 in the test with CCRF-CEM is > 100 µM (inactive); with UO-31, > 100 µM (inactive); in the test with NCI-H226, > 100 µM (inactive); in the test with UACC-62 it was 68.9 µM (inactive); with SN12C, > 100 µM (inactive); with OVCAR-8, > 100 µM (inactive). Further, the GI50 in the test with K562 was > 100 µM (inactive); in the test with A549, > 100 µM (inactive); with HCT-15 it was more than 100 µM; with MOLT-4, > 100 µM (inactive); with CAKI-1, > 100 µM (inactive); with SF-268 it was > 100 µM (inactive). In addition, the GI50 with U-251, in the test with HT-29, in the test on HCC 2998, in the test on SW-620 and with NCI-H522 was > 100 µM (inactive) in each case.
For the compound `CN(C)c1nc(N(C)C)sc(=O)n1`, the GI50 in the test on CCRF-CEM, with UO-31, in the test with NCI-H226, in the test on UACC-62, with SN12C and in the test on OVCAR-8 was > 100 µM (inactive) throughout. Also, the GI50 with K562 was > 100 µM (inactive); with A549, > 100 µM (inactive); in the test on HCT-15 it was more than 100 µM; in the test on MOLT-4, > 100 µM (inactive); in the test with CAKI-1 it was > 100 µM (inactive); in the test with SF-268 it was > 100 µM (inactive). In addition, the GI50 with U-251, in the test with HT-29, in the test on HCC 2998, with SW-620, in the test on NCI-H522 and in the test with OVCAR-5 was > 100 µM (inactive) in each case.
Turning to `CC(=O)OCc1cccc(O)c1C(=O)CCC=C(C)C`, the GI50 is 74.6 µM (inactive) with CCRF-CEM; > 100 µM (inactive) in the test on UO-31; > 100 µM (inactive) in the test with NCI-H226; > 100 µM (inactive) in the test with UACC-62; > 100 µM (inactive) in the test with SN12C; > 100 µM (inactive) in the test on K562. Further, the GI50 in the test with HCT-116 is > 100 µM (inactive); with A549, > 100 µM (inactive); in the test on HCT-15, more than 100 µM; with MOLT-4 it was > 100 µM (inactive); with CAKI-1 it was > 100 µM (inactive); in the test with SF-268 it was > 100 µM (inactive). Also, the GI50 in the test on U-251 was > 100 µM (inactive); in the test on HT-29 it was > 100 µM (inactive); in the test with HCC 2998 it was > 100 µM (inactive); in the test on SW-620, > 100 µM (inactive); in the test with NCI-H522, 27.1 µM (inactive); with OVCAR-5 it was 29.3 µM (inactive).
Consider `COc1ccc(C(c2c(O)c3ccccc3n(-c3ccccc3)c2=O)c2c(O)c3ccccc3n(-c3ccccc3)c2=O)cc1`, for which the GI50 in the test on CCRF-CEM, with UO-31, in the test with NCI-H226, in the test with SN12C, in the test with K562 and in the test with HCT-116 was > 100 µM (inactive) in each case. Moreover, the GI50 with A549 was > 100 µM (inactive); in the test with HCT-15, more than 100 µM; in the test with MOLT-4, > 100 µM (inactive); in the test with CAKI-1 it was > 100 µM (inactive); with SF-268 it was > 100 µM (inactive); in the test on U-251 it was > 100 µM (inactive). The GI50 in the test on HCC 2998, in the test on SW-620, in the test with NCI-H522 and in the test with OVCAR-5 was > 100 µM (inactive) each time.
Take `O=C1c2ccccc2C(=O)N1C/C=N/NS(=O)(=O)c1ccc2ccccc2c1`: the GI50 with CCRF-CEM, in the test on UO-31, with NCI-H226, in the test with UACC-62, in the test with SN12C and in the test on OVCAR-8 was > 100 µM (inactive) in each case. Also, the GI50 was > 100 µM (inactive) with K562; > 100 µM (inactive) in the test with HCT-116; > 100 µM (inactive) with A549; more than 100 µM with HCT-15; > 100 µM (inactive) in the test with MOLT-4; > 100 µM (inactive) in the test with CAKI-1. Moreover, the GI50 with U-251, in the test with HT-29, in the test with HCC 2998, with SW-620, in the test with NCI-H522 and in the test with OVCAR-5 was > 100 µM (inactive) each time.
Regarding `COc1cc2c(cc1OC)C(C(CBr)CBr)N(C1CCCC1)CC2` (stereo not drawn), the GI50 in the test on CCRF-CEM was > 100 µM (inactive); in the test with UO-31, > 100 µM (inactive); with NCI-H226 it was 82.6 µM (inactive); in the test with UACC-62 it was > 100 µM (inactive); in the test with OVCAR-8 it was > 100 µM (inactive); in the test with K562 it was > 100 µM (inactive). For the same compound, the GI50 with A549 is > 100 µM (inactive); in the test with HCT-15, more than 100 µM; in the test with MOLT-4, > 100 µM (inactive); in the test on CAKI-1, > 100 µM (inactive); in the test with SF-268 it was > 100 µM (inactive); in the test with U-251, > 100 µM (inactive). Moreover, the GI50 in the test on HT-29, in the test on HCC 2998, in the test with SW-620, with NCI-H522 and with OVCAR-5 was > 100 µM (inactive) throughout.
For the compound `COc1cccc2ccc(C(=O)c3ccccc3)nc12`, the GI50 with CCRF-CEM is 79.4 µM (inactive); in the test with UO-31 it was 2.22 µM (inactive); with NCI-H226, > 100 µM (inactive); in the test on UACC-62, > 100 µM (inactive); with SN12C, > 100 µM (inactive); in the test with OVCAR-8, > 100 µM (inactive). Also, the GI50 was > 100 µM (inactive) in the test with K562; > 100 µM (inactive) in the test with HCT-116; > 100 µM (inactive) with A549; more than 100 µM in the test on HCT-15; > 100 µM (inactive) in the test with MOLT-4; > 100 µM (inactive) with CAKI-1. Moreover, the GI50 in the test on SF-268, in the test on U-251, with HCC 2998, in the test with SW-620, with NCI-H522 and in the test with OVCAR-5 was > 100 µM (inactive) throughout.
Regarding `COC(=O)N/N=C/c1oc(-c2ccccc2)c(-c2ccccc2)c1[N+](=O)[O-]`, the GI50 in the test on UO-31, in the test on NCI-H226, in the test on UACC-62, in the test with SN12C, in the test with OVCAR-8 and with K562 was > 100 µM (inactive) throughout. For the same compound, the GI50 was > 100 µM (inactive) in the test with HCT-116; > 100 µM (inactive) in the test on A549; more than 100 µM in the test with HCT-15; > 100 µM (inactive) in the test with MOLT-4; > 100 µM (inactive) with CAKI-1; > 100 µM (inactive) in the test with SF-268. Also, the GI50 in the test on U-251, in the test on HT-29, in the test with HCC 2998, in the test with SW-620, with NCI-H522 and with OVCAR-5 was > 100 µM (inactive) each time.
On to `C[N+](C)(C)CC1CCCCC1O` (stereo not drawn), for which the GI50 with CCRF-CEM, in the test on UO-31, in the test on NCI-H226, in the test on UACC-62, in the test on SN12C and in the test with OVCAR-8 was > 100 µM (inactive) throughout. Moreover, the GI50 with HCT-116 was > 100 µM (inactive); with HCT-15, more than 100 µM; in the test with MOLT-4, > 100 µM (inactive); in the test on CAKI-1, > 100 µM (inactive); with SF-268, > 100 µM (inactive); with U-251, > 100 µM (inactive). For the same compound, the GI50 was > 100 µM (inactive) with HT-29; > 100 µM (inactive) in the test with HCC 2998; > 100 µM (inactive) in the test on SW-620; 63 µM (inactive) with NCI-H522; > 100 µM (inactive) with OVCAR-5.
